For this assay, the target named is human PDE4D catalytic domain (UniProt no. Q08499) (Homo sapiens (Human), UniProt Q08499). The assay is described as follows: PDE4 assay (TR-FRET, FAM-cAMP cleavage). In kind it is biochemical. As to conditions: human PDE4D catalytic domain; molar concentration giving 50% inhibition of substrate cleavage; read-out: PDE4 IC50 range. The method, boiled down:
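PDE4D catalytic domain ([…]) was incubated with unlabelled cAMP plus FAM-cAMP and titrated compound, stopped with binding buffer of metal-ion nanoparticles and Tb donor. AMP generation read by TR-FRET; IC50 as 50% inhibition of cleavage versus controls, reported as nM ranges.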
Sequence of human PDE4D catalytic domain (Q08499 380-740 limits assumed): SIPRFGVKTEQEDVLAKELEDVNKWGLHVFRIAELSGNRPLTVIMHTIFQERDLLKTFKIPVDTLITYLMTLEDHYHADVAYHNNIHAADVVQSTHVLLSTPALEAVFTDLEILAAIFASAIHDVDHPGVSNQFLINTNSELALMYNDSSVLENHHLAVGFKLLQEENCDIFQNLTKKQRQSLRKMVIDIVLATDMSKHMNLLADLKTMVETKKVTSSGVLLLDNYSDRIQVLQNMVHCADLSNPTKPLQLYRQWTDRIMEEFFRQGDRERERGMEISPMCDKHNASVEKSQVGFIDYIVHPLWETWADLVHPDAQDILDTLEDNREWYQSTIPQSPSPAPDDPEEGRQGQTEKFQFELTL
Usually IC50 stands for the concentration at which inhibition is half-maximal. Regarding `CCc1nn(C[C@@H](C)COC(=O)c2ccc(OC)c(C(F)(F)F)c2)c2c1C(=O)NCC1(CCOCC1)C2` [Example 230, [(2R)-3-(3-ethyl-4-oxo-spiro[6,8-dihydro-5H-pyrazolo[4,3-c]azepine-7,4′-tetrahydropyran]-1-yl)-2-methyl-propyl] 4-methoxy-3-(trifluoromethyl)benzoate], the half-maximal inhibitory concentration (IC50) is < 100 nM.
Next, `CCc1nn(C[C@@H](C)COC(=O)c2cc(OC)ccc2C(F)(F)F)c2c1C(=O)NCC1(CCOCC1)C2` [Example 231, [(2R)-3-(3-ethyl-4-oxo-spiro[6,8-dihydro-5H-pyrazolo[4,3-c]azepine-7,4′-tetrahydropyran]-1-yl)-2-methyl-propyl] 5-methoxy-2-(trifluoromethyl)benzoate]: < 100 nM; `CCc1nn(C[C@@H](C)COC(=O)c2cc(OC)cc(C(F)(F)F)c2)c2c1C(=O)NCC1(CCOCC1)C2` [Example 232, [(2R)-3-(3-ethyl-4-oxo-spiro[6,8-dihydro-5H-pyrazolo[4,3-c]azepine-7,4′-tetrahydropyran]-1-yl)-2-methyl-propyl] 3-methoxy-5-(trifluoromethyl)benzoate]: < 100 nM; `CCc1nn(C[C@@H](C)COC(=O)c2ccc(C(F)(F)F)c(OC)c2)c2c1C(=O)NCC1(CCOCC1)C2` [Example 233, [(2R)-3-(3-ethyl-4-oxo-spiro[6,8-dihydro-5H-pyrazolo[4,3-c]azepine-7,4′-tetrahydropyran]-1-yl)-2-methyl-propyl] 3-methoxy-4-(trifluoromethyl)benzoate]: < 100 nM.
Next, `CCc1nn(C[C@@H](C)COC(=O)c2ccc(C(F)(F)F)c(Cl)c2)c2c1C(=O)NCC1(CCOCC1)C2` [Example 234, [(2R)-3-(3-ethyl-4-oxo-spiro[6,8-dihydro-5H-pyrazolo[4,3-c]azepine-7,4′-tetrahydropyran]-1-yl)-2-methyl-propyl] 3-chloro-4-(trifluoromethyl)benzoate]: < 100 nM.
Next, `CCc1nn(C[C@@H](C)COC(=O)c2cccc(C(F)(F)F)c2Cl)c2c1C(=O)NCC1(CCOCC1)C2` [Example 235, [(2R)-3-(3-ethyl-4-oxo-spiro [6,8-dihydro-5H-pyrazolo[4,3-c]azepine-7,4′-tetrahydropyran]-1-yl)-2-methyl-propyl] 2-chloro-3-(trifluoromethyl)benzoate]: < 100 nM.
On to `CCc1nn(C[C@@H](C)COC(=O)c2ccc(Cl)cc2C(F)(F)F)c2c1C(=O)NCC1(CCOCC1)C2` [Example 236, [(2R)-3-(3-ethyl-4-oxo-spiro[6,8-dihydro-5H-pyrazolo[4,3-c]azepine-7,4′-tetrahydropyran]-1-yl)-2-methyl-propyl] 4-chloro-2-(trifluoromethyl)benzoate], for which the half-inhibitory concentration (IC50) is < 100 nM.
Under `CCc1nn(C[C@@H](C)COC(=O)c2ccc(C(F)(F)F)cc2Cl)c2c1C(=O)NCC1(CCOCC1)C2` [Example 237, [(2R)-3-(3-ethyl-4-oxo-spiro[6,8-dihydro-5H-pyrazolo[4,3-c]azepine-7,4′-tetrahydropyran]-1-yl)-2-methyl-propyl] 2-chloro-4-(trifluoromethyl)benzoate] stands < 100 nM.
For the molecule `CCc1nn(C[C@@H](C)COC(=O)c2ccc(Cl)c(C(F)(F)F)c2)c2c1C(=O)NCC1(CCOCC1)C2` [Example 238, [(2R)-3-(3-ethyl-4-oxo-spiro[6,8-dihydro-5H-pyrazolo[4,3-c]azepine-7,4′-tetrahydropyran]-1-yl)-2-methyl-propyl] 4-chloro-3-(trifluoromethyl)benzoate], the 50% inhibitory concentration (IC50) was < 100 nM.
Next, `CCc1nn(C[C@@H](C)COC(=O)c2cc(Cl)ccc2C(F)(F)F)c2c1C(=O)NCC1(CCOCC1)C2` [Example 239, [(2R)-3-(3-ethyl-4-oxo-spiro[6,8-dihydro-5H-pyrazolo[4,3-c]azepine-7,4′-tetrahydropyran]-1-yl)-2-methyl-propyl] 5-chloro-2-(trifluoromethyl)benzoate]: < 100 nM.
Next, `CCc1nn(C[C@@H](C)COC(=O)c2cc(Cl)cc(C(F)(F)F)c2)c2c1C(=O)NCC1(CCOCC1)C2` [Example 240, [(2R)-3-(3-ethyl-4-oxo-spiro[6,8-dihydro-5H-pyrazolo[4,3-c]azepine-7,4′-tetrahydropyran]-1-yl)-2-methyl-propyl] 3-chloro-5-(trifluoromethyl)benzoate]: < 100 nM.
Next, `CCc1nn(C[C@@H](C)COC(=O)c2cc(C(F)(F)F)ccc2Cl)c2c1C(=O)NCC1(CCOCC1)C2` [Example 241, [(2R)-3-(3-ethyl-4-oxo-spiro[6,8-dihydro-5H-pyrazolo[4,3-c]azepine-7,4′-tetrahydropyran]-1-yl)-2-methyl-propyl] 2-chloro-5-(trifluoromethyl)benzoate]: < 100 nM; `CCc1nn(C[C@@H](C)COC(=O)c2cccc(S(=O)(=O)C(C)C)c2)c2c1C(=O)NCC1(CCOCC1)C2` [Example 242, [(2R)-3-(3-ethyl-4-oxo-spiro[6,8-dihydro-5H-pyrazolo[4,3-c]azepine-7,4′-tetrahydropyran]-1-yl)-2-methyl-propyl] 3-isopropylsulfonylbenzoate]: < 100 nM; `CCc1nn(C[C@@H](C)COC(=O)c2ccc(S(=O)(=O)C(C)C)cc2)c2c1C(=O)NCC1(CCOCC1)C2` [Example 243, [(2R)-3-(3-ethyl-4-oxo-spiro[6,8-dihydro-5H-pyrazolo[4,3-c]azepine-7,4′-tetrahydropyran]-1-yl)-2-methyl-propyl] 4-isopropylsulfonylbenzoate]: < 100 nM.
As to `CCc1nn(C[C@@H](C)COC(=O)c2ccc(S(=O)(=O)N3CCCC3)cc2)c2c1C(=O)NCC1(CCOCC1)C2` [Example 245, [(2R)-3-(3-ethyl-4-oxo-spiro[6,8-dihydro-5H-pyrazolo[4,3-c]azepine-7,4′-tetrahydropyran]-1-yl)-2-methyl-propyl] 4-pyrrolidin-1-ylsulfonylbenzoate], the IC50 was < 100 nM.
Next, `CCc1nn(C[C@@H](C)COC(=O)c2cccc(S(=O)(=O)N3CCCC3)c2)c2c1C(=O)NCC1(CCOCC1)C2` [Example 246, [(2R)-3-(3-ethyl-4-oxo-spiro[6,8-dihydro-5H-pyrazolo[4,3-c]azepine-7,4′-tetrahydropyran]-1-yl)-2-methyl-propyl] 3-pyrrolidin-1-ylsulfonylbenzoate]: < 100 nM.
Next, `CCc1nn(C[C@@H](C)COC(=O)c2ccc(C(F)(F)F)c(C(F)(F)F)c2)c2c1C(=O)NCC1(CCOCC1)C2` [Example 247, [(2R)-3-(3-ethyl-4-oxo-spiro[6,8-dihydro-5H-pyrazolo[4,3-c]azepine-7,4′-tetrahydropyran]-1-yl)-2-methyl-propyl] 3,4-bis(trifluoromethyl)benzoate]: < 100 nM; `CCc1nn(C[C@@H](C)COC(=O)c2cccc(S(=O)(=O)N3CCOCC3)c2)c2c1C(=O)NCC1(CCOCC1)C2` [Example 248, [(2R)-3-(3-ethyl-4-oxo-spiro[6,8-dihydro-5H-pyrazolo[4,3-c]azepine-7,4′-tetrahydropyran]-1-yl)-2-methyl-propyl] 3-morpholinosulfonylbenzoate]: < 100 nM.
Next, `CCc1nn(C[C@@H](C)COC(=O)c2ccc(S(=O)(=O)N3CCOCC3)cc2)c2c1C(=O)NCC1(CCOCC1)C2` [Example 249, [(2R)-3-(3-ethyl-4-oxo-spiro[6,8-dihydro-5H-pyrazolo[4,3-c]azepine-7,4′-tetrahydropyran]-1-yl)-2-methyl-propyl] 4-morpholinosulfonylbenzoate]: < 100 nM.
With `CCc1nn(C[C@@H](C)COC(=O)c2ccc(S(=O)(=O)N3CCN(C(C)=O)CC3)cc2)c2c1C(=O)NCC1(CCOCC1)C2` [Example 250, [(2R)-3-(3-ethyl-4-oxo-spiro[6,8-dihydro-5H-pyrazolo[4,3-c]azepine-7,4′-tetrahydropyran]-1-yl)-2-methyl-propyl] 4-(4-acetylpiperazin-1-yl)sulfonylbenzoate], the IC50 was < 100 nM.
Under `CCc1nn(C[C@@H](C)COC(=O)c2cccc(S(=O)(=O)N3CCN(C(C)=O)CC3)c2)c2c1C(=O)NCC1(CCOCC1)C2` [Example 251, [(2R)-3-(3-ethyl-4-oxo-spiro[6,8-dihydro-5H-pyrazolo[4,3-c]azepine-7,4′-tetrahydropyran]-1-yl)-2-methyl-propyl] 3-(4-acetylpiperazin-1-yl)sulfonylbenzoate] stands < 100 nM; under `CCc1nn(C[C@@H](C)COC(=O)c2ccc(C(N)=O)cc2)c2c1C(=O)NCC1(CCOCC1)C2` [Example 252, [(2R)-3-(3-ethyl-4-oxo-spiro[6,8-dihydro-5H-pyrazolo[4,3-c]azepine-7,4′-tetrahydropyran]-1-yl)-2-methyl-propyl] 4-carbamoylbenzoate], < 100 nM.
Next, `CCc1nn(C[C@@H](C)COC(=O)c2ccc(C(=O)NC)cc2)c2c1C(=O)NCC1(CCOCC1)C2` [Example 253, [(2R)-3-(3-ethyl-4-oxo-spiro[6,8-dihydro-5H-pyrazolo[4,3-c]azepine-7,4′-tetrahydropyran]-1-yl)-2-methyl-propyl] 4-(methylcarbamoyl)benzoate]: < 100 nM; `CCNC(=O)c1ccc(C(=O)OC[C@H](C)Cn2nc(CC)c3c2CC2(CCOCC2)CNC3=O)cc1` [Example 254, [(2R)-3-(3-ethyl-4-oxo-spiro[6,8-dihydro-5H-pyrazolo[4,3-c]azepine-7,4′-tetrahydropyran]-1-yl)-2-methyl-propyl] 4-(ethylcarbamoyl)benzoate]: < 100 nM.
Under `CCc1nn(C[C@@H](C)COC(=O)c2ccc(C(=O)N(C)C)cc2)c2c1C(=O)NCC1(CCOCC1)C2` [Example 255, [(2R)-3-(3-ethyl-4-oxo-spiro[6,8-dihydro-5H-pyrazolo[4,3-c]azepine-7,4′-tetrahydropyran]-1-yl)-2-methyl-propyl] 4-(dimethylcarbamoyl)benzoate] stands < 100 nM.

(Values after patent US10906915B2, “Substituted pyrazoloazepin-4-ones and their use as phosphodiesterase inhibitors” (LEO Pharma A/S, priority 2016, dated 2021).)
